Assay [1] concerns phospho-SRSF6 in MDA-MB-468 cells. Briefly: Inhibition of phospho-SRSF6 levels in MDA-MB-468 cells (Western blot). The following applies: Homo sapiens, 2 hours, compared to DMSO control; for inhibition at 0.01 µM: 10 nM, read-out: >50% p-SRSF6 reduction at 10 nM; for inhibition at 0.1 µM: 100 nM, read-out: >50% p-SRSF6 reduction at 100 nM. In kind it is cell-based. On the procedure: FIG. 1: FIG. 1 provides a representative Western blot showing reduction of phosphorylated-SRSF6 (P—SRSF6) in MDA-MB 468 cells by compounds of the invention. GAPDH was probed for by Western blotting to control for equal protein loading and for normalization of samples. The numbers below the blots show percent inhibition of the P—SRSF6 signal at 100 nM (A) or 10 nM (B) compared to DMSO control.
Assessment of Inhibition of Phospho-SRSF6 Levels in MDA-MB-468 Cells
MDA-MB-468 cells (ATCC, HTB-132) were cultured in DMEM (BioConcept cat. no. 1-26F03) supplemented with 10% FBS (Sigma cat. no. F9665), […] (Sigma cat. no. S8636), 1% Penicillin-Streptomycin (BioConcept cat. no. 4-01FOO-H). When cells reached a density of 70% o in 6-well plates (TPP cat. no. 92006), they were treated either with the test compound vehicle DMSO, or with experimental compounds at a final concentration of either 10 or 100 nM for 2 hours. Thereafter, the culture medium was removed and cells were collected by scraping in Lysis Buffer (20 mM Tris HCl pH7.5, 150 mM NaCl, 1 mM EGTA, 1 mM EDTA, 1% o Triton and 1% o NP-40) containing protease and phosphatase inhibitors (Halt™ Protease&Phosphatase inhibitor cocktail 100× ThermioScientific cat. no. 1861281) and 1 mM PMSF (Fluka cat. no. 93482). Cleared lysates were stored in Eppendorfftubes at −80° C. until use, and protein concentration in lysates was determined using Pierce 660 nm Protein Assay Reagent (ThermioScientific cat. no. 22660). 20 μg proteins were diluted in 4× Laemmli buffer (Biorad cat. no. 161-0747) containing 10% beta-mercaptoethanol, separated by SDS-PAGE using 10% gels, and then transferred to PVDF membranes (Trans Blot Turbo Transfer Pack BioRad cat. no. 1704156) by Trans-Blot® Turbo™ System semidry blotting methodology (BioRad). Primary antibodies were incubated in TBS-0.1% Tween-20 buffer containing 3% BSA Bovine Albumin Fr.V (Millipore cat. no. 81-053-3) overnight at 4° C. The following primary antibodies were used: Mouse anti-phosphoepitope SR proteins clone 1H4 (Millipore cat. no. MABE50) diluted 1:5000, and rabbit anti-GAPDH clone 14C10 (Cell Signaling cat. no. 2118S) to control for equal protein loading, diluted 1:2000. HRP-conjugated secondary antibodies were incubated one hour at room temperature diluted 1:5000 in TBS-0.1% Tween-20 buffer containing […] nonfat-dried bovine milk (Sigma cat. no. M7409). The following secondary antibodies were used: Goat anti-mouse-HRP (Jackson cat. no. 115-035-146) and goat anti-rabbit-HRP (Jackson cat. no. 111-035-144). Membranes were incubated with ECL Prime Western Blot Detection Reagent (Amersham cat. no. RPN2236) to detect specific signals using Fusion SOLO S device (Vilber Lourmat). Pixel intensity of the phopsho-SRSF6 (MW 55 kDa in reference to markers) and GAPDH (MW 37 kDa) signals in the Western blots were determined using Evolution-Capt image analysis software (v17.01, Vilber Lourmat). DMSO control was used to set the phospho-SRSF6 signal at baseline, phospho-SRSF6 signals for each sample were normalized by the respective GAPDH signals and percent intensity of P—SRSF6 signal at 10 and 100 nM compound compared to DMSO control was calculated (see FIG. 1).
On the technique in general: In western blotting, separated proteins are transferred to a membrane and probed.

For assay [2], the system named is CAL-51 cells. Briefly: CAL-51 proliferation assay. In kind it is cell-based. The following applies: YO-PRO-1 Iodide readout. Put shortly: (§1)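 Cells seeded at 750 per well, treated next day for 72 h at 37 °C with 0.5% final DMSO. Cell number read by YO-PRO-1 fluorescence after lysis, normalized to DMSO (100%) and time-zero cells (0%). GI50 from 4-parameter logistic fit, maximum constrained to 100%.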

Assay [3] addresses T1, recombinant human CLK3 (Homo sapiens, UniProt P49761).
T1 construct: purchased Thermo Fisher Scientific PV3826
In words: CLK3 kinase assay (LANCE Ultra). In kind it is biochemical. The following applies: CLK3 0.5 nM, ATP 300 μM, 3 hours at 30° C. Put shortly:
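Recombinant human CLK3 (0.5 nM) with ULight-CREBtide (50 nM) and 300 μM ATP, 3 h at 30 °C in kinase buffer; EDTA stop, then Eu-anti-phospho-CREB antibody (2 nM, 1 h RT), TR-FRET read at 665/620 nm. Inhibition normalized to DMSO and no-ATP wells; IC50 from 4-parameter fit, ten 1:3 concentrations in duplicate.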

The test system of assay [4] is MDA-MB-231 cells. Briefly: MDA-MB-231 proliferation assay. In kind it is cell-based. As to conditions: YO-PRO-1 Iodide readout. An outline of the steps: as §1

T1 sequence (P49761 whole entry): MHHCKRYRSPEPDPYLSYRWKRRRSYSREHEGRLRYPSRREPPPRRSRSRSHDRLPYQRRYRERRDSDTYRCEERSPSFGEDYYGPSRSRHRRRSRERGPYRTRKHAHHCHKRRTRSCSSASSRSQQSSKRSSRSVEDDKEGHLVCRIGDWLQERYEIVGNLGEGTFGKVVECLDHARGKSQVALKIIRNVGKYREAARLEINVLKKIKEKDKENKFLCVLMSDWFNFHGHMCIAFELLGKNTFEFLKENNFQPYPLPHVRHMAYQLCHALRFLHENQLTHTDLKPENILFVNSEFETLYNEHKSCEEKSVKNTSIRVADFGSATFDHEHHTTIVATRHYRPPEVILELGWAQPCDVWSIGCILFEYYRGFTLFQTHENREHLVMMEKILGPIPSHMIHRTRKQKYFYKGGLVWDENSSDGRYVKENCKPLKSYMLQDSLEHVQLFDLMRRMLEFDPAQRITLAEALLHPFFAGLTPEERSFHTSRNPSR

On to `Nc1ncnc2c1C1(CCCC1)Cc1c-2ccc(O[C@H]2CC[C@H](N)CC2)c1N` [Example 37, 8-(trans-4-aminocyclohexoxy)spiro[6H-benzo[h]quinazoline-5,1′-cyclopentane]-4,7-diamine], for which, in assay [1], the inhibition at 0.01 µM is over 50% and the inhibition at 0.1 µM was over 50%. Also, in assay [2] (Homo sapiens, CAL-51, 72 h), the GI50 – broadly, the concentration that inhibits growth by half – is under 100 nM. Besides, the IC50 (in general, the concentration at which inhibition is half-maximal) in assay [3] was in the range of 30 to 100 nM. Also, the GI50 in assay [4] (Homo sapiens, MDA-MB-231, 72 h) lay within 100 to 2000 nM.
As for `CN(CC#N)c1c(O[C@H]2CC[C@@H](N)CC2)ccc2c1CC(C)(C)c1c(N)ncnc1-2` [Example 30, 2-[[4-amino-8-(cis-4-aminocyclohexoxy)-5,5-dimethyl-6H-benzo[h]quinazolin-7-yl]-methyl-amino]acetonitrile], in assay [1], the inhibition at 0.01 µM was over 50%. Also, the inhibition at 0.1 µM in assay [1] was over 50%. For the same compound, the GI50 is under 100 nM in assay [2] (Homo sapiens, CAL-51, 72 h) and under 100 nM in assay [4] (Homo sapiens, MDA-MB-231, 72 h). Besides, the IC50 in assay [3] was under 30 nM.
As to `CN(CCC#N)c1c(O[C@H]2CC[C@H](N)CC2)ccc2c1CC(C)(C)c1c(N)ncnc1-2` [Example 46, 3-[[4-amino-8-(trans-4-aminocyclohexoxy)-5,5-dimethyl-6H-benzo[h]quinazolin-7-yl]-methyl-amino]propanenitrile], in assay [1], the inhibition at 0.01 µM was over 50% and the inhibition at 0.1 µM was over 50%. For the same compound, the GI50 in assay [2] (Homo sapiens, CAL-51, 72 h) is under 100 nM. Further, in assay [3], the IC50 is under 30 nM. For the same compound, the GI50 in assay [4] (Homo sapiens, MDA-MB-231, 72 h) was under 100 nM.
Take `CCNc1c(O[C@H]2CC[C@H](N)CC2)ccc2c1CC(C)(C)c1c(N)ncnc1-2` [Example 8, 8-(trans-4-aminocyclohexoxy)-N7-ethyl-5,5-dimethyl-6H-benzo[h]quinazoline-4,7-diamine]: in assay [1], the inhibition at 0.01 µM was under 50% and the inhibition at 0.1 µM is over 50%. Further, the GI50 in assay [2] (Homo sapiens, CAL-51, 72 h) was under 100 nM. In assay [3], the half-inhibitory concentration (IC50) was 30 to 100 nM. Besides, the GI50 in assay [4] (Homo sapiens, MDA-MB-231, 72 h) fell in the range of 100 to 2000 nM.
On to `CC1(C)Cc2c(ccc(O[C@H]3CC[C@H](N)CC3)c2N2CCC(O)C2)-c2ncnc(N)c21` (single isomer, unassigned) [Example 16, 1-[4-amino-8-(trans-4-aminocyclohexoxy)-5,5-dimethyl-6H-benzo[h]quinazolin-7-yl]pyrrolidin-3-ol], for which, in assay [1], the inhibition at 0.01 µM was over 50% and the inhibition at 0.1 µM is over 50%. For the same compound, in assay [2] (72 hours), the concentration for 50% growth inhibition (GI50) is under 100 nM. The IC50 in assay [3] is under 30 nM. Also, the GI50 in assay [4] (72 hours) is under 100 nM.
For `CN(C)c1c(O[C@H]2CC[C@H](N)CC2)ccc2c1CC(C)(C)c1c(N)ncnc1-2` [Example 20, 8-(trans-4-aminocyclohexoxy)-N7,N7,5,5-tetramethyl-6H-benzo[h]quinazoline-4,7-diamine], in assay [1], the inhibition at 0.01 µM was over 50% and the inhibition at 0.1 µM was over 50%. For the same compound, the GI50 in assay [2] (Homo sapiens, CAL-51, 72 h) was under 100 nM. The IC50 in assay [3] was under 30 nM. Besides, the 50% growth inhibitory concentration (GI50) in assay [4] (Homo sapiens, MDA-MB-231, 72 h) was under 100 nM.
Consider `CN(CCC#N)c1c(OC2CCCNCC2)ccc2c1CC(C)(C)c1c(N)ncnc1-2` (stereo not drawn) [Example 78, 3-[[4-amino-8-(azepan-4-yloxy)-5,5-dimethyl-6H-benzo[h]quinazolin-7-yl]-methyl-amino]propanenitrile], for which the GI50 in assay [2] (Homo sapiens, CAL-51, 72 h) was under 100 nM; in assay [4] (Homo sapiens, MDA-MB-231, 72 h) it was under 100 nM. The IC50 in assay [3] was under 30 nM.
As for `CC(C)N(C)c1c(O[C@H]2CC[C@H](N)CC2)ccc2c1CC(C)(C)c1c(N)ncnc1-2` [Example 102, 8-(trans-4-aminocyclohexoxy)-N7-isopropyl-N7,5,5-trimethyl-6H-benzo[h]quinazoline-4,7-diamine], the GI50 is under 100 nM in assay [2] (Homo sapiens, CAL-51, 72 h) and 100 to 2000 nM in assay [4] (Homo sapiens, MDA-MB-231, 72 h). Also, in assay [3], the IC50 is under 30 nM.
On to `CN(C)CCOc1ccc2c(c1N(C)CCC#N)CC(C)(C)c1c(N)ncnc1-2` [Example 123, 3-[[4-amino-8-[2-(dimethylamino)ethoxy]-5,5-dimethyl-6H-benzo[h]quinazolin-7-yl]-methyl-amino]propanenitrile], for which the GI50 in assay [2] (Homo sapiens, CAL-51, 72 h) is under 100 nM; in assay [4] (Homo sapiens, MDA-MB-231, 72 h) it was under 100 nM. The IC50 in assay [3] is under 30 nM.
With `CN(CCOC(F)(F)F)c1c(O[C@H]2CC[C@H](N)CC2)ccc2c1CC(C)(C)c1c(N)ncnc1-2` [Example 47, 8-(trans-4-aminocyclohexoxy)-N7,5,5-trimethyl-N7-[2-(trifluoromethoxy)ethyl]-6H-benzo[h]quinazoline-4,7-diamine], the GI50 was under 100 nM in assay [2] (Homo sapiens, CAL-51, 72 h) and 100 to 2000 nM in assay [4] (Homo sapiens, MDA-MB-231, 72 h). Besides, the IC50 in assay [3] lay within 30 to 100 nM.
Regarding `CC1(C)Cc2c(ccc(O[C@H]3CC[C@H](N)CC3)c2SCCC#N)-c2ncnc(N)c21` [Example 108, 3-[[4-amino-8-(trans-4-aminocyclohexoxy)-5,5-dimethyl-6H-benzo[h]quinazolin-7-yl]sulfanyl]propanenitrile], the GI50 in assay [2] (Homo sapiens, CAL-51, 72 h) was under 100 nM; in assay [4] (Homo sapiens, MDA-MB-231, 72 h), 100 to 2000 nM. The IC50 in assay [3] was under 30 nM.
For `COCCN(C)c1c(O[C@H]2CC[C@H](N)CC2)ccc2c1CC1(CCCC1)c1c(N)ncnc1-2` [Example 72, 8-(trans-4-aminocyclohexoxy)-N7-(2-methoxyethyl)-N7-methyl-spiro[6H-benzo[h]quinazoline-5,1′-cyclopentane]-4,7-diamine], in that order: 100 to 2000 nM, 100 to 2000 nM and 101 to 1000 nM.
For `CN(CC(C)(C)C#N)c1c(O[C@H]2CC[C@H](N)CC2)ccc2c1CC(C)(C)c1c(N)ncnc1-2` [Example 91, 3-[[4-amino-8-(trans-4-aminocyclohexoxy)-5,5-dimethyl-6H-benzo[h]quinazolin-7-yl]-methyl-amino]-2,2-dimethyl-propanenitrile], in that order: under 100 nM, under 100 nM and under 30 nM.
For `CC(C)CCN(C)c1c(O[C@H]2CC[C@H](N)CC2)ccc2c1CC(C)(C)c1c(N)ncnc1-2` [Example 104, 8-(trans-4-aminocyclohexoxy)-N7-isopentyl-N7,5,5-trimethyl-6H-benzo[h]quinazoline-4,7-diamine], in that order: 100 to 2000 nM, over 2000 nM and 101 to 1000 nM.
As for `COc1ccc2c(c1N(C)CCC#N)CC(C)(C)c1c(N)ncnc1-2` [Example 95, 3-[(4-amino-8-methoxy-5,5-dimethyl-6H-benzo[h]quinazolin-7-yl)-methyl-amino]propanenitrile], the GI50 in assay [2] (Homo sapiens, CAL-51, 72 h) is under 100 nM; in assay [4] (Homo sapiens, MDA-MB-231, 72 h), under 100 nM. Besides, the IC50 in assay [3] is under 30 nM.
For the compound `COC1CCN(c2c(O[C@H]3CC[C@H](N)CC3)ccc3c2CC(C)(C)c2c(N)ncnc2-3)C1` (single isomer, unassigned) [Example 73, 8-(trans-4-aminocyclohexoxy)-7-(3-methoxypyrrolidin-1-yl)-5,5-dimethyl-6H-benzo[h]quinazolin-4-amine], the GI50 in assay [2] (72 hours) and in assay [4] (72 hours) was under 100 nM in each case. For the same compound, the IC50 in assay [3] lay within 30 to 100 nM.

These data come from US20260159486A1, “BENZO[H]QUINAZOLINE-4-AMINE DERIVATIVES FOR THE TREATMENT OF CANCER” (Redona Therapeutics, Inc., priority 2021, published 2026).
